The values below come from patent publication US20070037205A1, “Methods and apparatus for cell based screening” (priority 2001, published 2007).

The test system of the assay is HT-29 cells. In words: HT-29 cytotoxicity assay (resazurin), with or without IFN-γ pretreatment. It counts as cell-based, human. The conditions noted are these: IFN-γ treatment alone (data not shown). Here is the method: HT-29 cells (ATCC HTB-38) were cultured in McCoy's 5a Medium with 25 mM HEPES and supplemented with 10% fetal calf serum, 1× nonessential amino acids, 2 mM L-glutamine, 1 mM sodium pyruvate, 100 U/ml penicillin/100 ug/ml streptomycin (complete medium) at 37° C. in a humidified 5% CO2 cabinet. The cellular monolayer was washed with PBS and adherent cells were removed by treatment with 0.25% typsin/0.05% EDTA. The cells were collected by centrifugation and resuspended in complete medium. Cell number and viability was determined by Trypan Blue exclusion staining.
Duplicate plates of HT-29 cells were prepared by seeding cells into clear bottom, black walled 96 well tissue culture treated microplates (Corning 3904) at 5000 cells/well in a volume of 150 μl per well. […] Reduction of resazurin due to metabolic activity causes the dye to change from a non-fluorescent to fluorescent product that can be measured at 530 nm excitation and 590 nm emission wavelengths. Relative Fluorescent Units (RFU) was measured in a Fluoroskan Ascent microplate fluorometer (Thermo/Labsystems) in a bottom-read mode with excitation at 530 nm and emission at 590 nm. […]
Extracts that scored positive in the primary screen were evaluated for tumor cell death in a dose-dependent cytotoxicity assay. […] Inhibition of cellular growth was determined using resazurin indicator dye as described above. […]

In the case of “IFN-γ: recombinant human IFN-γ (R & D Systems), sensitizing agent”, the “growth inhibitory effect on HT-29 cells” value is “no growth inhibitory effect”.
